# Assays:
# Format in all cases: cell-based, human
# [1] = tested on: PBMC obtained from MM patients; assay: 12-day recall IFNγ ELISPOT with PBMC of MM patients
# Experimental: PBMC from MM patients and HVs were cultured as described previously. In brief, for CD8^+ T-cell stimulation, PBMC were pulsed with 1 μg/ml per peptide and cultured for 12 days adding IL-4 and IL-7 on day 0 and 1 as well as IL-2 on day 3, 5, 7 and 9. HLA-A*02 (KLFEKVKEV) (SEQ ID NO. 231) and B*07 (KPSEKIQVL) (SEQ ID NO. 232) restricted control peptides derived from benign tissues (HV-exclusive HLA ligands) served as negative control. Peptide-stimulated PBMC were analyzed by ELISPOT assays on day 12. For CD4^+ T-cell stimulation, culture was performed as described for CD8^+ T cells except for 2 modifications: pulsing was carried out with 10 μg/ml of HLA class II peptide and no IL-4 or IL-7 was added.
# IFNγ ELISPOT assays were carried out as described previously. In brief, 96-well nitrocellulose plates (Millipore) were coated with […] IFNγ mAb (Mabtech) and incubated over night at 4° C. Plates were blocked with 10% human serum for 2 h at 37° C. 2.5×10^5 cells/well of pre-stimulated PBMC were pulsed with 1 μg/ml (HLA class I) or 2.5 μg/ml (HLA class II) peptide and incubated for 24-26 h. Readout was performed according to manufacturer's instructions. PHA was used as positive control. HLA-A*02 (KLFEKVKEV) (SEQ ID NO. 231) and B*07 (KPSEKIQVL) (SEQ ID NO. 232) restricted control peptides derived from benign tissues (HV-exclusive HLA ligands) served as negative control. Spots were counted using an ImmunoSpot S5 analyzer (CTL). T cell responses were considered to be positive when >10 spots/well were counted and the mean spot count per well was at least 3-fold higher than the mean number of spots in the negative control wells (according to the cancer immunoguiding program (CIP) guidelines).
# U266 cells = assay: HLA class I ligand presentation upon carfilzomib treatment on U266 cells (LC-MS/MS); design: key to modulation upon carfilzomib-treatment 24 #1 / modulation upon carfilzomib-treatment 24 #2 / modulation upon carfilzomib-treatment 24 #3 / modulation upon carfilzomib-treatment 48 #1 / modulation upon carfilzomib-treatment 48 #2 / modulation upon carfilzomib-treatment 48 #3: −1: significantly down-modulated; 0: not signifcant/not detected; 1: significantly up-modulated; details: U266 cells, vs mock-treated controls; for modulation upon carfilzomib-treatment 24 #1 / modulation upon carfilzomib-treatment 24 #2 / modulation upon carfilzomib-treatment 24 #3: 24 h after carfilzomib treatment (100 nM, 1 h); for modulation upon carfilzomib-treatment 24 #1 / modulation upon carfilzomib-treatment 48 #1: biological replicate #1; for modulation upon carfilzomib-treatment 24 #2 / modulation upon carfilzomib-treatment 48 #2: biological replicate #2; for modulation upon carfilzomib-treatment 24 #3 / modulation upon carfilzomib-treatment 48 #3: biological replicate #3; for modulation upon carfilzomib-treatment 48 #1 / modulation upon carfilzomib-treatment 48 #2 / modulation upon carfilzomib-treatment 48 #3: 48 h after carfilzomib treatment (100 nM, 1 h)
# Outline: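 MM.1S and U266 myeloma cells were pulsed with 100 nM carfilzomib for 1 h, washed and recultured 24 or 48 h; controls got 5% glucose vehicle. HLA class I ligands were immunopurified with W6/32 and analysed by nanoLC-MS/MS (CID, 5 technical replicates, 5% FDR, 8-12-mers). Modulation versus mock was scored as fold-change ≥4 with Benjamini-Hochberg-corrected significance.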
# MM.1S cells = assay: HLA class I ligand presentation upon carfilzomib treatment on MM.1S cells (LC-MS/MS); design: key to modulation upon carfilzomib-treatment 24 #1 / modulation upon carfilzomib-treatment 24 #2 / modulation upon carfilzomib-treatment 24 #3 / modulation upon carfilzomib-treatment 48 #1 / modulation upon carfilzomib-treatment 48 #2 / modulation upon carfilzomib-treatment 48 #3: −1: significantly down-modulated; 0: not signifcant/not detected; 1: significantly up-modulated; details: MM.1S cells, vs mock-treated controls; for modulation upon carfilzomib-treatment 24 #1 / modulation upon carfilzomib-treatment 24 #2 / modulation upon carfilzomib-treatment 24 #3: 24 h after carfilzomib treatment (100 nM, 1 h); for modulation upon carfilzomib-treatment 24 #1 / modulation upon carfilzomib-treatment 48 #1: biological replicate #1; for modulation upon carfilzomib-treatment 24 #2 / modulation upon carfilzomib-treatment 48 #2: biological replicate #2; for modulation upon carfilzomib-treatment 24 #3 / modulation upon carfilzomib-treatment 48 #3: biological replicate #3; for modulation upon carfilzomib-treatment 48 #1 / modulation upon carfilzomib-treatment 48 #2 / modulation upon carfilzomib-treatment 48 #3: 48 h after carfilzomib treatment (100 nM, 1 h)
# Experimental: HLA class I and II molecules were isolated using standard immunoaffinity purification as described using the pan-HLA class I specific mAb W6/32, the pan-HLA class II specific mAb T039 and the HLA-DR specific mAB L243 (produced in house).
# HLA ligand extracts were analyzed in 5 technical replicates as described previously. In brief, peptide samples were separated by nanoflow HPLC (RSLCnano, ThermoFisher) using a 50 μm×25 cm PepMap RSLC column (Thermo Fisher) and a gradient ranging from 2.4 to 32.0% acetonitrile over the course of 90 min. Eluting peptides were analyzed in an online coupled LTQ Orbitrap XL mass spectrometer (Thermo Fisher) using a top 5 CID (collision induced dissociation) fragmentation method.
# Data processing was performed as described previously. In brief, the Mascot search engine (Mascot 2.2.04; Matrix Science, London, UK) was implemented to search the human proteome as comprised in the Swiss-Prot database (20,279 reviewed protein sequences, September 2013) without enzymatic restriction. Potential mutated HLA ligands were searched implementing a database containing the human proteome concatenated with proteins containing single amino acid variants (SAVs) listed in the COSMIC database (http://cancer.sanger.ac.uk/cosmic/). Only recurrent SAVs described in 2 or more samples of hematological origin were included. Oxidized methionine was allowed as a dynamic modification. The false discovery rate was estimated using the Percolator algorithm and set to 5%. Peptide lengths were limited to 8-12 amino acids for HLA class I and 12-25 amino acids for HLA class II. Protein inference was disabled, allowing for multiple protein annotations of peptides. HLA annotation was performed using SYFPEITHI [46] or an extended in-house database. Experimental validation of peptide identifications and HLA annotations was performed by mass spectrometric and functional characterization of synthetic peptides for a subset of peptides.
# The inventors quantitatively assessed HLA class I ligand presentation during proteasome inhibitor therapy. Observed was a considerable plasticity of the HLA class I ligandome after treatment with carfilzomib with 17.9±1.1% of MM.1S ligands and 11.2±0.7% of U266 ligands (mean of three biological replicates ±s.d.) showing significant modulation (fold-change ≥4, Po0.01 after Benjamini-Hochberg correction) at t24 h compared with mock-treated controls. Briefly, Cultured MCLs (MM.1S and U266) and primary myeloma samples were incubated with carfilzomib (100 nM, Kyprolis®, available, e.g., from Onyx Pharmaceuticals, Inc.) as an example for a proteasome inhibitor for a 1-h period, followed by three washes in PBS (Gibco) and recultured for additional 24 or 48 h. Controls were incubated with vehicle control (glucose 5%) for 1 h, followed by identical washing and incubation for 24 or 48 h. Experiments were conducted in three biological replicates where indicated.
# [2] = 12-day recall IFNγ ELISPOT, PBMC of MM patients, HLA class I peptide
Sequence,"specific T-cell recognition, MM patients positive/tested [1, 2]","specific T-cell recognition, share of MM patients [1, 2] [%]",modulation upon carfilzomib-treatment 24 #1 (U266 cells),modulation upon carfilzomib-treatment 24 #2 (U266 cells),modulation upon carfilzomib-treatment 24 #3 (U266 cells),modulation upon carfilzomib-treatment 48 #1 (U266 cells),modulation upon carfilzomib-treatment 48 #2 (U266 cells),modulation upon carfilzomib-treatment 48 #3 (U266 cells),modulation upon carfilzomib-treatment 24 #1 (MM.1S cells),modulation upon carfilzomib-treatment 24 #2 (MM.1S cells),modulation upon carfilzomib-treatment 24 #3 (MM.1S cells),modulation upon carfilzomib-treatment 48 #1 (MM.1S cells),modulation upon carfilzomib-treatment 48 #2 (MM.1S cells),modulation upon carfilzomib-treatment 48 #3 (MM.1S cells),"memory T-cell responses, MM patients positive/tested ([1]; IFNγ ELISPOT, HLA class II peptide, MM patients)"
KAMEAASSL (listed as Homo sapiens) [SEQ ID NO: 82],2/16,13,–,–,–,–,–,–,–,–,–,–,–,–,–
KPRPPQGL,–,–,0,0,0,1,1,1,1,1,1,1,0,0,–
APRHPSTNSL,–,–,0,1,0,1,1,0,0,0,1,0,0,0,–
NSVIIVDKNGRLV (listed as Homo sapiens) [SEQ ID NO: 237],–,–,–,–,–,–,–,–,–,–,–,–,–,–,2/5
KPQPRPQTL,–,–,0,0,0,0,0,0,1,1,1,0,0,0,–
FVFPGELLL,–,–,1,1,0,0,0,0,0,0,0,0,0,0,–
IPAKPPVSF,–,–,0,0,0,0,0,0,0,0,0,0,0,0,–
TPSSRPASL,–,–,0,0,0,0,0,0,1,1,0,0,0,0,–

# Reference: US10906938B2, “Cell epitopes and combination of cell epitopes for use in the immunotherapy of myeloma and other cancers” (Immatics Biotechnologies GmbH, priority 2015, dated 2021)
